How the values were obtained:
PARP1 = PARP1 (Homo sapiens, UniProt P09874); assay: PARP1 chemiluminescent assay; type: biochemical; conditions: recombinant PARP1 enzyme activity, chemiluminescence
Method: (§1) Mix the solution of recombinant poly ADP ribotransferase 1 and 2 (PARP1 and PARP2) (40 ng enzyme/well) and the compounds to be tested, respectively. And then added to a 96-well plate coated with […] mixture, incubated at room temperature for 1 h. Then add 50 μL 0.3 ng/mL Streptavidin-HRP to each well. The plates were incubated for 30 minutes at room temperature. Finally, the plates were treated with streptavidin-HRP followed by addition of the ELISA ECL substrate to produce chemiluminescence that can then be measured using a chemiluminescence reader. The inhibition rate of the compound to PARP1/2 enzyme activity was calculated according to the following formula. [formula] IC50 value is obtained by fitting the s-shaped dose response curve equation by using XL Fit software. The curve equation is Y=100/(1+10^(log C−log IC50)), C is the compound concentration. Table 1 summarizes the inhibitory effects of compounds on PARP1 and PARP2 enzyme activity (IC50), wherein +++++ indicates IC50≤1 nM; ++++ indicates 1<IC50≤10 nM; +++ indicates 10 nM<IC50≤100 nM: ++ indicates 100 nM<IC50≤1 μM; + indicates IC50>1 μM.

MDA-MB-436 cells = assay: Inhibition of proliferation of human breast cancer MDA-MB-436 cell line (CCK-8, 7 days); type: cell-based; conditions: Homo sapiens, 168 h, proliferation of MDA-MB-436, 7 days
Method: The cells were cultured in complete medium (DMEM medium +10% FBS+Insulin+glutathione). When the confluence reached about 80%, cells were digested and gently dispensed from the bottom of the dish with a 1 mL pipette. Cell suspension was collected and centrifuged at 500 rpm for 3 min. The supernatant was discarded, and the cell pellet were re-suspended in complete medium. The cells were seeded into a culture dish at an appropriate proportion, and then cultured in a 5% CO2 incubator at 37° C. The assay was carried out when the cells were in optimum condition and the confluence was reached 80%. Cells were harvested in the logarithmic growth phase by using 1 mL pipette gently and then centrifugated at 500 rpm for 3 min. The cells were resuspended by using refresh medium after removing the supernatant and then the cells were counted. The cells were seeded at 3000/well in a 96 well plate and incubated at 37° C. 5% CO2 incubator overnight. In the second day, cells were treated with compound at 8 serially diluted dose with 1000×final concentration in 100% DMSO. The compound was prepared as below: 1000×dilution tested compound solution to 40×test compound solution by adding 5μL, 1000×compound solution to 120 μL Medium (25-fold dilution). The solution was mixed by oscillation. DMSO was used as the control.
The medium was removed from the wells in the plate after the plate was taken out from incubator. Then, fresh medium of 195 μL/per well was added to the 96 well plate. 5μL/per well of 40×test compound solution was added into the 96 well plate. Finally, the plate was incubated for 7 days in a 37° C. 5% CO2 incubator. The medium containing compound was changed once on the fourth day. After 7 days, 20 μL of CCK-8 was added to each well and shake gently, then was cultured for 4 hours. The plate was shaken for 5 min after incubation, the absorbance values of 450 nm. and 650nm wavelengths were recorded respectively (OD=absorbance value of 450 nm−absorbance value of 650 nm) by using the multifunction readout instrument.
Data were analyzed by software GraphPad Prism 6.0. The inhibitory activity of compounds on cell proliferation was plotted using cell survival rate against the compound concentration as coordinates. Cell survival rate %=(ODcompound−ODbackground)/(ODDMSO−ODbackground)×100. The IC50 value was fitted by the s-shaped dose response curve equation: Y=100/(1+10^(log C−log IC50)), and C was the compound concentration.
Table 2 summarizes the inhibitory effect data (IC50) of the compounds on the proliferation of human breast cancer cells MDA-MB-436, wherein ++++ indicates 1<IC50≤10 nM; +++ indicates 10 nM<IC50≤100 nM; ++ indicates 100 nM<IC50≤1 μM; + indicates IC50>1 μM.

PARP2 = PARP2 (Homo sapiens, UniProt Q9UGN5); assay: PARP2 chemiluminescent assay; type: biochemical; conditions: recombinant PARP2 enzyme activity, chemiluminescence
Method: as §1

Sequence of PARP2 (Q9UGN5 whole entry, species assumed): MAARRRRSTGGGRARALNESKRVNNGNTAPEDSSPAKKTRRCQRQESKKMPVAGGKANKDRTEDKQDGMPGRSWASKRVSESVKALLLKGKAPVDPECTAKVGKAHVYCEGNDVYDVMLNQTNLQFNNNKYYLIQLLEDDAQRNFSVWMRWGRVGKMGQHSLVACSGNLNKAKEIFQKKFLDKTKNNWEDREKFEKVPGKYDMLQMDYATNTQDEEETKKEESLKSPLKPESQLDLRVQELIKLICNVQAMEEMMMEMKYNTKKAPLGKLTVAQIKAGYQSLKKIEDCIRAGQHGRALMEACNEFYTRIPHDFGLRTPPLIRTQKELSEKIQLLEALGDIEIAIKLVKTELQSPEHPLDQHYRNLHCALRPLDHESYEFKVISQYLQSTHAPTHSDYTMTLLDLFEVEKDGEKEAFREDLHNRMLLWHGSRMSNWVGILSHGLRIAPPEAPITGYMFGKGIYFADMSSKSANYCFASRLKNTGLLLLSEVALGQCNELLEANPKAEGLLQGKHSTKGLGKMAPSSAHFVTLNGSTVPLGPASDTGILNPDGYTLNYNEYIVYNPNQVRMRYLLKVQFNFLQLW
Sequence of PARP1 (P09874 whole entry): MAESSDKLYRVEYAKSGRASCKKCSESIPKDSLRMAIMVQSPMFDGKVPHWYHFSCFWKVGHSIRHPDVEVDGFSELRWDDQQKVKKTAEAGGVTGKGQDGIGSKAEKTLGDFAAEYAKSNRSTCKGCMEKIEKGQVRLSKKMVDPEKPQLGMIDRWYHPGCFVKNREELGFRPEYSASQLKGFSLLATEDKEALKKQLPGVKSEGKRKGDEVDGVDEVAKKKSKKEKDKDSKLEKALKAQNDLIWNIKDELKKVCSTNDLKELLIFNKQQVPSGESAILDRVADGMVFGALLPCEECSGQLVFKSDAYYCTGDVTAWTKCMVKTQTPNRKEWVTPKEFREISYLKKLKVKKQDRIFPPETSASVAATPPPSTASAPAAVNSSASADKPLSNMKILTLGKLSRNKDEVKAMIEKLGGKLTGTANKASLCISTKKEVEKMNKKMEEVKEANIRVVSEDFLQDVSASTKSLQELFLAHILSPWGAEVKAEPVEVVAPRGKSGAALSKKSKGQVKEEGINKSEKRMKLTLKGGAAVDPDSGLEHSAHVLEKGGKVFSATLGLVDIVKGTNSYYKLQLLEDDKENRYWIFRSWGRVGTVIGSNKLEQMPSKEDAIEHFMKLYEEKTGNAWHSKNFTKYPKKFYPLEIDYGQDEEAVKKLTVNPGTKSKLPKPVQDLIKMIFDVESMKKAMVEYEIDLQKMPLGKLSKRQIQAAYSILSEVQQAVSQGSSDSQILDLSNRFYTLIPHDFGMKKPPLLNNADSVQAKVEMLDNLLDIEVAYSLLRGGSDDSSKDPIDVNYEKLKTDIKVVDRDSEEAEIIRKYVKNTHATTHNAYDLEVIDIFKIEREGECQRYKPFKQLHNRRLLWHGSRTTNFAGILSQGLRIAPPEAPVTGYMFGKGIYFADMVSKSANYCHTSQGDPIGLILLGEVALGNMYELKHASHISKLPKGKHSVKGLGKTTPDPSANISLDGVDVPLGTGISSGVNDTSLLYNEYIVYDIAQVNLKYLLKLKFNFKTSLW

IC50 (PARP1) [nM]	IC50 (MDA-MB-436 cells) [nM]	IC50 (PARP2) [nM]	SMILES
1 to 10	10 to 100	–	CCNC(=O)c1ccc(N2CCN(Cc3cc(F)c4c(c3)NC(=O)N(CC)C4)CC2)c(Cl)n1 [Example 122, 6-chloro-N-ethyl-5-(4-((3-ethyl-5-fluoro-2-oxo-1,2,3,4-tetrahydroquinazolin-7-yl)methyl)piperazin-1-yl)picolinamide]
1 to 10	1 to 10	> 1000	CCN1Cc2c(F)cc(CN3CCN(c4ccc(C(=O)NC)nc4C)CC3)cc2NC1=O [Example 119, 5-(4-((3-ethyl-5-fluoro-2-oxo-1,2,3,4-tetrahydroquinazolin-7-yl)methyl)piperazin-1-yl)-N,6-dimethylpicolinamide]
1 to 10	100 to 1000	> 1000	CCN1Cc2ccc(CN3CCN(c4ccc(C(=O)NC)nc4)CC3)cc2NC1=O [Example 15, 5-(4-((3-ethyl-2-oxo-1,2,3,4-tetrahydroquinazolin-7-yl)methyl)piperazin-1-yl)-N-methylpicolinamide]
1 to 10	10 to 100	> 1000	CCn1c(=O)[nH]c2cc(CN3CCN(c4ccc(C(=O)NC)nc4C)CC3)cnc2c1=O [Example 4, 5-(4-((3-ethyl-2,4-dioxo-1,2,3,4-tetrahydropyrido[3,2-d]pyrimidin-7-yl)methyl)piperazin-1-yl)-N,6-dimethylpicolinamide]
1 to 10	> 1000	> 1000	CCn1c(=O)[nH]c2cc(CN3CCN(c4ccc(C(=O)NC)nc4Cl)CC3)cnc2c1=O [Example 10, 5-(4-((3-ethyl-2,4-dioxo-1,2,3,4-tetrahydropyrido[3,2-d]pyrimidin-7-yl)methyl)piperazin-1-yl)-6-chloro-N-methylpicolinamide]
10 to 100	> 1000	10 to 100	CCn1c(=O)[nH]c2cc(CN3CCN(c4ncc(C(=O)NC)cn4)CC3)ccc2c1=O [Example 30, 2-(4-((3-ethyl-2,4-dioxo-1,2,3,4-tetrahydroquinazolin-7-yl)methyl)piperazin-1-yl)-N-methylpyrimidine-5-carboxamide]
1 to 10	100 to 1000	> 1000	CNC(=O)c1ccc(N2CCN(Cc3ccc4c(=O)n(C(C)C)c(=O)[nH]c4c3)CC2)c(F)n1 [Example 26, 5-(4-((3-isopropyl-2,4-dioxo-1,2,3,4-tetrahydroquinazolin-7-yl)methyl)piperazin-1-yl)-6-fluoro-N-methylpicolinamide]
1 to 10	10 to 100	> 1000	CCN1Cc2ccc(CN3CCN(c4ccc(C(=O)NC)nc4C)CC3)cc2NC1=O [Example 116]
≤ 1	1 to 10	10 to 100	CCn1c(=O)[nH]c2cc(CN3CCN(c4ccc(C(=O)NC)nc4Cl)CC3)ccc2c1=O [Example 21, 5-(4-((3-ethyl-2,4-dioxo-1,2,3,4-tetrahydroquinazolin-7-yl)methyl)piperazin-1-yl)-6-chloro-N-methylpicolinamide]
1 to 10	10 to 100	100 to 1000	CCn1c(=O)[nH]c2cc(CN3CCN(c4ccc(C(=O)NC)nc4)CC3)ccc2c1=O [Example 12, 5-(4-((3-ethyl-2,4-dioxo-1,2,3,4-tetrahydroquinazolin-7-yl)methyl)piperazin-1-yl)-N-methylpicolinamide]
1 to 10	10 to 100	> 1000	CCn1c(=O)[nH]c2cc(CN3CCN(c4ccc(C(=O)NC)nc4Cl)CC3)c(F)cc2c1=O [Example 61, 6-chloro-5-(4-((3-ethyl-6-fluoro-2,4-dioxo-1,2,3,4-tetrahydroquinazolin-7-yl)methyl)piperazin-1-yl)-N-methylpicolinamide]
1 to 10	10 to 100	100 to 1000	CCn1c(=O)[nH]c2cc(CN3CCN(c4ccc(C(=O)NC(C)C)nc4F)CC3)ccc2c1=O [Example 34, 5-(4-((3-ethyl-2,4-dioxo-1,2,3,4-tetrahydroquinazolin-7-yl)methyl)piperazin-1-yl)-6-fluoro-N-isopropylpicolinamide]
1 to 10	1 to 10	> 1000	CCNC(=O)c1ccc(N2CCN(Cc3cc(F)c4c(=O)n(CC)c(=O)[nH]c4c3)CC2)c(Cl)n1 [Example 104, 6-chloro-N-ethyl-5-(4-((3-ethyl-5-fluoro-2,4-dioxo-1,2,3,4-tetrahydroquinazolin-7-yl)methyl)piperazin-1-yl)picolinamide]
1 to 10	10 to 100	> 1000	CCCn1c(=O)[nH]c2cc(CN3CCN(c4ccc(C(=O)NC)nc4F)CC3)ccc2c1=O [Example 19, 5-(4-((2,4-dioxo-3-propyl-1,2,3,4-tetrahydroquinazolin-7-yl)methyl)piperazin-1-yl)-6-fluoro-N-methylpicolinamide]
1 to 10	> 1000	> 1000	CNC(=O)c1ccc(NC(=O)c2cccc(-c3ccc4c(=O)n(C)c(=O)[nH]c4c3)c2)cn1 [Example 40, 5-(3-(3-methyl-2,4-dioxo-1,2,3,4-tetrahydroquinazolin-7-yl)benzamido)N-methylpicolinamide]
1 to 10	> 1000	> 1000	CNC(=O)c1ccc(NC(=O)c2cccc(-c3ccc4c(=O)n(C(C)C)c(=O)[nH]c4c3)c2)cn1 [Example 42, 5-(3-(3-isopropyl-2,4 dioxo-1,2,3,4-tetrahydroquinazolin-7-yl)benzamido)-N-methylpicolinamide]
1 to 10	1 to 10	100 to 1000	CCn1c(=O)[nH]c2cc(CN3CCN(c4ccc(C(=O)NC)nc4F)CC3)cc(F)c2c1=O [Example 25, 5-(4-((3-ethyl-5-fluoro-2,4-dioxo-1,2,3,4-tetrahydroquinazolin-7-yl)methyl)piperazin-1-yl)-6-fluoro-N-methylpicolinamide]
1 to 10	> 1000	100 to 1000	CCn1c(=O)[nH]c2cc(CN3CCN(c4ccc(C(=O)NC)nn4)CC3)ccc2c1=O [Example 29, 6-(4-((3-ethyl-2,4-dioxo-1,2,3,4-tetrahydroquinazolin-7-yl)methyl)piperazin-1-yl)-N-methylpyridazine-3-carboxamide]
≤ 1	> 1000	100 to 1000	CCn1c(=O)[nH]c2cc(CN3CCN(c4ccc(C(=O)NC)nc4)CC3)cnc2c1=O [Example 1, 5-(4-((3-ethyl-2,4-dioxo-1,2,3,4-tetrahydropyrido[3,2-d]pyrimidin-7-yl)methyl)piperazin-1-yl)-N-methylpicolinamide]
–	10 to 100	–	CCN1Cc2ccc(CN3CCN(c4ccc(C(=O)NC5CC5)nc4C)CC3)cc2NC1=O [Example 137, N-cyclopropyl-5-(4-((3-ethyl-2-oxo-1,2,3,4-tetrahydroquinazolin-7-yl)methyl)piperazin-1-yl)-6-methylpicolinamide]
–	10 to 100	–	CCn1c(=O)[nH]c2cc(CN3CCN(c4ccc(C(=O)NC)nc4C)CC3)cc(Cl)c2c1=O [Example 59, 5-(4-((5-chloro-3-ethyl-2,4-dioxo-1,2,3,4-tetrahydroquinazolin-7-yl)methyl)piperazin-1-yl)-N,6-dimethylpicolinamide]
–	> 1000	–	CCn1c(=O)[nH]c2cc(CN3CCN(c4ccc(C(=O)NC)nc4C(C)C)CC3)ccc2c1=O [Example 80, 5-(4-((3-ethyl-2,4-dioxo-1,2,3,4-tetrahydroquinazolin-7-yl)methyl)piperazin-1-yl)-6-isopropyl-N-methylpicolinamide]

Reference: patent publication US20240208969A1, “SUBSTITUTED FUSED BICYCLIC COMPOUNDS AS PARP INHIBITORS AND THE USE THEREOF” (IMPACT THERAPEUTICS (SHANGHAI), INC., priority 2021, published 2024)
